The record followed here is patent US20250034122A1, “SUBSTITUTED N-CYANOPYRROLIDINES WITH ACTIVITY AS USP30 INHIBITORS” (MISSION THERAPEUTICS LIMITED, priority 2021, published 2025).

The experiment deals with USP30 (Homo sapiens (Human), UniProt Q70CQ3). As to the kind of experiment: USP30 biochemical IC50 assay (fluorescence polarisation). The conditions noted are these: geomean; USP30 4 nM, 30 min pre-incubation, TAMRA-peptide-ubiquitin FP substrate. In general terms: Fluorescence polarisation rises when a labelled molecule tumbles more slowly, as on binding a larger partner.

Broadly, the IC50 is the concentration that gives 50% inhibition. Read a low IC50 as greater potency in that assay.

The structures appear in SMILES notation.

Chain of USP30 (Q70CQ3 57-517): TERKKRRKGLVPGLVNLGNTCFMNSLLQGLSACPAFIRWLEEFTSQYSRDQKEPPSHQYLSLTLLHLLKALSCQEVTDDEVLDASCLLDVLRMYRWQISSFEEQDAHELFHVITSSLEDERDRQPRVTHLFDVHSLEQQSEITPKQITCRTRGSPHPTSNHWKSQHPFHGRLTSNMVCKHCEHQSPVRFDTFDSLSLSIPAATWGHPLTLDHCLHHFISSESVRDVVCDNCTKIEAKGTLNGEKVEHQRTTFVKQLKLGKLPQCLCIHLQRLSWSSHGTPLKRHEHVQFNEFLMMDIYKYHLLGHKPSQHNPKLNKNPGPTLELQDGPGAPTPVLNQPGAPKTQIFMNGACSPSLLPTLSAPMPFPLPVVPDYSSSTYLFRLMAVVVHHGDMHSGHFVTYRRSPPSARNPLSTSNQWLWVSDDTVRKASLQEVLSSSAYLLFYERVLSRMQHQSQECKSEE
Method: Dilution plates were prepared at 21 times the final concentration (2100 μM for a final concentration of 100 μM) in 50% DMSO in a 96-well polypropylene V-bottom plate (Greiner #651201). A typical 8-point dilution series would be 100, 30, 10, 3, 1, 0.3, 0.1, 0.03 μM final. Reactions were performed in duplicate in black 384 well plates (small volume, Greiner 784076) in a final reaction volume of 21 μl.
Either lpl of 50% DMSO or diluted compound was added to the plate. USP30 (Boston Biochem #E582) was diluted in reaction buffer (40 mM Tris, pH 7.5, 0.005% Tween 20, 0.5 mg/ml BSA, 5 mM beta-mercaptoethanol) to achieve a final assay concentration of 4 nM, and 10 μl of diluted USP30 was added to the compound. Enzyme and compound were incubated for 30 min at room temp. Reactions were initiated by the addition of 50 nM of TAMRA labelled peptide linked to ubiquitin via an isopeptide bond as fluorescence polarisation substrate. Reactions were read immediately after addition of substrate and following a 2-hour incubation at room temperature. Readings were performed on a Pherastar Plus (BMG Labtech). λ Excitation 540 nm; λ Emission 590 nm.

Compound `N#CN1C[C@H](NC(=O)N2CCC(c3cccc(OC(F)(F)F)c3)C2)C[C@H]1Cn1cccn1` (single isomer, unassigned) [Example 37] showed an IC50 of 120 nM. As for `N#CN1C[C@H](NC(=O)c2ncc(-c3cccc(OC(F)(F)F)c3)o2)C[C@H]1Cn1ccnn1` [Example 4, N-((3R,5S)-5-((1H-1,2,3-Triazol-1-yl)methyl)-1-cyanopyrrolidin-3-yl)-5-(3-(trifluoromethoxy)phenyl)oxazole-2-carboxamide], the IC50 was 3 nM. Compound `N#Cc1ccc(C2CC2)c(-c2cnc(C(=O)N[C@@H]3C[C@@H](Cn4ccnn4)N(C#N)C3)o2)c1` [Example 9, N-((3R,5S)-5-((1H-1,2,3-Triazol-1-yl)methyl)-1-cyanopyrrolidin-3-yl)-5-(5-cyano-2-cyclopropylphenyl)oxazole-2-carboxamide] registered an IC50 of 2 nM. `CCc1cccc(-c2cnc(C(=O)N[C@@H]3C[C@@H](Cn4ccnn4)N(C#N)C3)o2)c1` [Example 11, N-((3R,5S)-5-((1H-1,2,3-Triazol-1-yl)methyl)-1-cyanopyrrolidin-3-yl)-5-(3-ethylphenyl)oxazole-2-carboxamide] gave an IC50 of 4 nM. For the compound `N#Cc1ccc(C2CC2)c(-c2nnc(C(=O)N[C@@H]3C[C@@H](Cn4ccnn4)N(C#N)C3)o2)c1` [Example 14, N-((3R,5S)-5-((1H-1,2,3-Triazol-1-yl)methyl)-1-cyanopyrrolidin-3-yl)-5-(5-cyano-2-cyclopropylphenyl)-1,3,4-oxadiazole-2-carboxamide], inhibition was half-maximal at 4 nM (IC50). The figure for `N#CN1C[C@H](NC(=O)c2nnc(-c3cc(OC(F)(F)F)ccc3OC3CC3)o2)C[C@H]1Cn1ccnn1` [Example 15, N-((3R,5S)-5-((1H-1,2,3-Triazol-1-yl)methyl)-1-cyanopyrrolidin-3-yl)-5-(2-cyclopropoxy-5-(trifluoromethoxy)phenyl)-1,3,4-oxadiazole-2-carboxamide] is 8 nM; for `N#Cc1cccc(-c2cnc(C(=O)N[C@@H]3C[C@@H](Cn4cnnc4)N(C#N)C3)o2)c1` [Example 19, N-((3R,5S)-5-((4H-1,2,4-Triazol-4-yl)methyl)-1-cyanopyrrolidin-3-yl)-5-(3-cyanophenyl)oxazole-2-carboxamide] it is 2 nM. The compound `N#CN1C[C@H](NC(=O)c2cc(-c3cccc(OC(F)(F)F)c3)ccn2)C[C@H]1Cn1ccnn1` [Example 25, N-((3R,5S)-5-((1H-1,2,3-Triazol-1-yl)methyl)-1-cyanopyrrolidin-3-yl)-4-(3-(trifluoromethoxy)phenyl)picolinamide] showed an IC50 of 9 nM. On to `N#CN1C[C@H](NC(=O)c2ncc(-c3cccc(OC(F)(F)F)c3)o2)C[C@H]1Cn1cccn1` [Example 27, N-((3R,5S)-5-((1H-Pyrazol-1-yl)methyl)-1-cyanopyrrolidin-3-yl)-5-(3-(trifluoromethoxy)phenyl)oxazole-2-carboxamide], for which the midpoint of inhibition, the IC50, lay at 9 nM. `Cc1ccn(C[C@@H]2C[C@@H](NC(=O)c3ncc(-c4cccc(OC(F)(F)F)c4)o3)CN2C#N)n1` [Example 28, N-((3R,5S)-1-Cyano-5-((3-methyl-1H-pyrazol-1-yl)methyl)pyrrolidin-3-yl)-5-(3-(trifluoromethoxy)phenyl)oxazole-2-carboxamide] displayed an IC50 of 10 nM. This IC50 and that of the compound before are within 1.5-fold of each other. Then `Cc1ccnn1C[C@@H]1C[C@@H](NC(=O)c2ncc(-c3cccc(OC(F)(F)F)c3)o2)CN1C#N` [Example 29, N-((3R,5S)-1-Cyano-5-((5-methyl-1H-pyrazol-1-yl)methyl)pyrrolidin-3-yl)-5-(3-(trifluoromethoxy)phenyl)oxazole-2-carboxamide], with 55 nM.

In the case of `Cn1ncc2cc(-c3ccc(C(=O)N[C@@H]4C[C@@H](Cn5cccn5)N(C#N)C4)c(F)c3)ccc21` [Example 34, N-((3R,5S)-5-((1H-Pyrazol-1-yl)methyl)-1-cyanopyrrolidin-3-yl)-2-fluoro-4-(1-methyl-1H-indazol-5-yl)benzamide], the IC50 came out at 44 nM. Compound `Cn1ncc2cc(-c3ccc(C(=O)N[C@@H]4C[C@@H](Cn5ccnn5)N(C#N)C4)c(F)c3)ccc21` [Example 35, N-((3R,5S)-5-((1H-1,2,3-Triazol-1-yl)methyl)-1-cyanopyrrolidin-3-yl)-2-fluoro-4-(1-methyl-1H-indazol-5-yl)benzamide] gave a half-inhibitory concentration (IC50) of 27 nM. `N#CN1C[C@H](NC(=O)N2CCC(c3cccc(OC(F)(F)F)c3)C2)C[C@H]1Cn1cccn1` (stereo partly drawn) [Example 36, N-((3R,5S)-5-((1H-Pyrazol-1-yl)methyl)-1-cyanopyrrolidin-3-yl)-3-(3-(trifluoromethoxy)phenyl) pyrrolidine-1-carboxamide] displayed an IC50 of 100 nM. Against the preceding compound, the IC50 is about 3.7-fold higher. On to `N#CN1C[C@H](NC(=O)N2CCC(c3cccc(OC(F)(F)F)c3)C2)C[C@H]1Cn1cccn1` (stereo partly shown) [Example 38], for which the midpoint of inhibition, the IC50, lay at 210 nM. `N#CN1C[C@H](NC(=O)c2ncc(-c3ccc(F)c(OC(F)(F)F)c3)o2)C[C@H]1Cn1ccnn1` [Example 39, N-((3R,5S)-5-((1H-1,2,3-Triazol-1-yl)methyl)-1-cyanopyrrolidin-3-yl)-5-(4-fluoro-3-(trifluoromethoxy)phenyl)oxazole-2-carboxamide] yielded an IC50 of 8 nM. This IC50 lies about 26-fold lower than the previous one.

`N#Cc1cnc(N2CCC2)c(-c2nnc(C(=O)N[C@@H]3C[C@@H](Cn4ccnn4)N(C#N)C3)o2)c1` [Example 40, N-((3R,5S)-5-((1H-1,2,3-Triazol-1-yl)methyl)-1-cyanopyrrolidin-3-yl)-5-(2-(azetidin-1-yl)-5-cyanopyridin-3-yl)-1,3,4-oxadiazole-2-carboxamide] came in with an IC50 of 12 nM. Turning to `N#Cc1cnc(N2CCCC2)c(-c2nnc(C(=O)N[C@@H]3C[C@@H](Cn4ccnn4)N(C#N)C3)o2)c1` [Example 41, N-((3R,5S)-5-((1H-1,2,3-Triazol-1-yl)methyl)-1-cyanopyrrolidin-3-yl)-5-(5-cyano-2-(pyrrolidin-1-yl)pyridin-3-yl)-1,3,4-oxadiazole-2-carboxamide], the IC50 worked out at 9 nM. The IC50 values of the last two compounds are within 1.5-fold of each other. The figure for `N#CN1C[C@H](NC(=O)c2nnc(-c3cc(OC(F)(F)F)ccc3Cl)o2)C[C@H]1Cn1ccnn1` [Example 42, N-((3R,5S)-5-((1H-1,2,3-Triazol-1-yl)methyl)-1-cyanopyrrolidin-3-yl)-5-(2-chloro-5-(trifluoromethoxy)phenyl)-1,3,4-oxadiazole-2-carboxamide] is 6 nM; for `N#CN1C[C@H](NC(=O)c2nnc(-c3cccc(OC(F)(F)F)c3)o2)C[C@H]1Cn1ccnn1` [Example 43, N-((3R,5S)-5-((1H-1,2,3-Triazol-1-yl)methyl)-1-cyanopyrrolidin-3-yl)-5-(3-(trifluoromethoxy)phenyl)-1,3,4-oxadiazole-2-carboxamide] it is 12 nM; for `N#CN1C[C@H](NC(=O)c2nnc(-c3cc(OC(F)(F)F)ccc3C3CC3)o2)C[C@H]1Cn1cccn1` [Example 44, N-((3R,5S)-5-((1H-Pyrazol-1-yl)methyl)-1-cyanopyrrolidin-3-yl)-5-(2-cyclopropyl-5-(trifluoromethoxy)phenyl)-1,3,4-oxadiazole-2-carboxamide] it is 5 nM. `N#CN1C[C@H](NC(=O)c2nnc(-c3cc(OC(F)(F)F)ccc3C3CC3)o2)C[C@H]1Cn1nccn1` [Example 45, N-((3R,5S)-5-((2H-1,2,3-Triazol-2-yl)methyl)-1-cyanopyrrolidin-3-yl)-5-(2-cyclopropyl-5-(trifluoromethoxy)phenyl)-1,3,4-oxadiazole-2-carboxamide] registered an IC50 of 7 nM. The compound `N#CN1C[C@H](NC(=O)c2nnc(-c3cc(OC(F)(F)F)ccc3C3CC3)o2)C[C@H]1Cn1cncn1` [Example 47, N-((3R,5S)-5-((1H-1,2,4-Triazol-1-yl)methyl)-1-cyanopyrrolidin-3-yl)-5-(2-cyclopropyl-5-(trifluoromethoxy)phenyl)-1,3,4-oxadiazole-2-carboxamide] yielded an IC50 of 5 nM. As for `CCCc1ccc(OC(F)(F)F)cc1-c1nnc(C(=O)N[C@@H]2C[C@@H](Cn3ccnn3)N(C#N)C2)o1` [Example 48, N-((3R,5S)-5-((1H-1,2,3-Triazol-1-yl)methyl)-1-cyanopyrrolidin-3-yl)-5-(2-propyl-5-(trifluoromethoxy)phenyl)-1,3,4-oxadiazole-2-carboxamide], half-maximal inhibition (IC50) was put at 5 nM. Then `N#CN1C[C@H](NC(=O)c2nnc(-c3cc(OC(F)(F)F)ccc3C3CC3)o2)C[C@H]1Cn1cnnc1` [Example 49, N-((3R,5S)-5-((4H-1,2,4-Triazol-4-yl)methyl)-1-cyanopyrrolidin-3-yl)-5-(2-cyclopropyl-5-(trifluoromethoxy)phenyl)-1,3,4-oxadiazole-2-carboxamide], with 6 nM. As for `N#CN1C[C@H](NC(=O)c2nc(-c3cc(OC(F)(F)F)ccc3C3CC3)no2)C[C@H]1Cn1ccnn1` [Example 50, N-((3R,5S)-5-((1H-1,2,3-Triazol-1-yl)methyl)-1-cyanopyrrolidin-3-yl)-3-(2-cyclopropyl-5-(trifluoromethoxy)phenyl)-1,2,4-oxadiazole-5-carboxamide], the half-maximal inhibitory concentration (IC50) came to 5 nM.

Take `N#CN1C[C@H](NC(=O)c2noc(-c3cc(OC(F)(F)F)ccc3C3CC3)n2)C[C@H]1Cn1ccnn1` [Example 51, N-((3R,5S)-5-((1H-1,2,3-Triazol-1-yl)methyl)-1-cyanopyrrolidin-3-yl)-5-(2-cyclopropyl-5-(trifluoromethoxy)phenyl)-1,2,4-oxadiazole-3-carboxamide]: the midpoint of inhibition, the IC50, lay at 14 nM. For `N#CN1C[C@H](NC(=O)c2ccc(-c3cccc4[nH]ncc34)nc2)C[C@H]1Cn1cccn1` [Example 52, N-((3R,5S)-5-((1H-Pyrazol-1-yl)methyl)-1-cyanopyrrolidin-3-yl)-6-(1H-indazol-4-yl)nicotinamide], half-maximal inhibition (IC50) required 15 nM.
